Data from US20130252951A1, “7-HYDROXY-PYRAZOLO[1,5-A] PYRIMIDINE COMPOUNDS AND THEIR USE AS CCR2 RECEPTOR ANTAGONISTS” (Proximagen Limited, priority 2010, published 2013).

How the values were obtained:
human CCR2 [1] = biological target: T1, human CCR2 (Homo sapiens, UniProt P41597); assay: CCR2 binding assay ([125I]-MCP-1 displacement, SPA); parameters: expressed in transfected cells; host or cells: HEK293 EBNA cells (membrane preparation); conditions: human CCR2-HEK293 EBNA membranes
Method: The binding of test compounds to the CCR2 receptor was evaluated using [^125I]-MCP-1.
Briefly, 25 μL assay buffer (25 mM HEPES, pH 7.4, 5 mM MgCl2, 1 mM CaCl2, 0.2% (w/v) protease free BSA, 100 μg/mL bacitracine and 0.1 M NaCl) was placed into total binding wells and 25 μL unlabelled ligand (0.4 μM MCP-1, for determination of non-specific binding) was placed into non-specific binding wells. [^125I]-MCP-1 (25 μL), human CCR2-HEK293 EBNA membrane preparation (25 μL) and SPA beads (25 μL) were added to all the wells. The wells were incubated for 4 h and counted for 1 min/well in a Perkin Elmer Topcount NXT.
The SPA beads (wheat germ agglutinin (WGA) PEI Type A PVT 0.25 mg/well) were prepared by reconstituting lyophilised bead to 100 mg/mL with de-ionised water and further diluting in assay buffer to give 10 mg/mL. The radioligand ([^125I]-MCP-1) was prepared by dilution in assay buffer to give 0.32 μCi/mL, ˜17600 dpm/25 μL (specific activity 2000 Ci/mMol). The final assay concentration was 0.04 nM. The human CCR2-HEK293 EBNA cells membranes were prepared as follows: cells were spun down at 1000×g for 3 min at room temperature, washed in PBS and spun down again. The cells were then homogenised with an Ultra Turrax at setting 6 in 5-10 mL ice cold buffer A (EDTA 10 mM, HEPES 10 mM, pH 7.4) for 10 sec. Following dilution with further ice cold buffer A and spinning at 20000×g for 20 min at 4° C., the mixture was re-homogenised in 5-10 mL ice cold buffer B (EDTA 0.1 mM, HEPES 10 mM, pH 7.4) and spun at 20000×g for 20 min at 4° C. The protein was assayed and re-suspended in buffer C (Buffer B+1 tablet/10 mL of Roche protease inhibitor cocktail) at 3 mg/mL. Before use, the membranes were thawed and diluted with assay buffer to give 80 μg/mL (2 μg/well).
Specific binding was determined as the difference between total binding in the absence of antagonist and binding in the presence of excess antagonist (non-specific binding). Data was expressed as a percentage of specific binding and analysed by a 4-parameter logistic equation using GraphPad Prism 4 software (GraphPad, San Diego, Calif., USA) to yield IC50 values. Ki values were calculated from the IC50 values using the correction for radioligand concentration.

human CCR2 [2] = biological target: T1, human CCR2; assay: CCR2 functional calcium assay (FLIPR calcium flux, hMCP-1 challenge); assay type: cell-based; parameters: expressed in transfected cells; host or cells: HEK293 EBNA cells; conditions: HEK293 EBNA cells transfected with human CCR2, hMCP-1 challenge; read-out: Functional CCR2 fKi
Outline: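 FLIPR Fluo-4 calcium flux in HEK293 EBNA cells transfected with human CCR2, with non-transfected cells as control. Compounds (10-point 1:3 curves, typically 30 μM to 0.5 nM) were added in HBSS/20 mM HEPES/0.1% BSA, pH 7.4, followed by MCP-1 challenge. Peak minus basal signal was expressed as % of EC50 MCP-1 response.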

T1 sequence (P41597 whole entry): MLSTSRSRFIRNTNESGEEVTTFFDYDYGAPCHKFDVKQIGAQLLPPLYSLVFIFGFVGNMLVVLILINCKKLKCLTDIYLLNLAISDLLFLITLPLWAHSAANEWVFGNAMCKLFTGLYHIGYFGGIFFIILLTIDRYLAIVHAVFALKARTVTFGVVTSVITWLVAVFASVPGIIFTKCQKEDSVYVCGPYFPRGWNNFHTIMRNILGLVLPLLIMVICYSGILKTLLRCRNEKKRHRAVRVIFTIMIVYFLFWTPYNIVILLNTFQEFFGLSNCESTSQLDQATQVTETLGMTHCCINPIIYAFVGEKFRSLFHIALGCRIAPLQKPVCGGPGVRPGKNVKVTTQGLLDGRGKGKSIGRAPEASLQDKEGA

SMILES | Ki (human CCR2 [1]) [nM] | Ki (human CCR2 [2]) [nM]
CCOC(=O)c1nc2ccnn2c(O)c1Cc1cccc(Cl)c1 [Example 70, Ethyl 6-[(3-chlorophenyl)methyl]-7-hydroxypyrazolo[1,5-a]pyrimidine-5-carboxylate] | 100 to 1000 | < 10
Oc1c(Cc2cccc(C(F)(F)F)c2)c(C2CC2)nc2ccnn12 [Example 22, 5-Cycloproyl-6-{[3-(trifluoromethyl)-phenyl]methyl}pyrazolo[1,5-a]pyrimidin-7-ol] | 10 to 100 | < 10
Oc1c(Oc2ccc(Br)cc2)c(C2CC2)nc2ccnn12 [Example 65, 6-(4-Bromophenoxy)-5-cyclopropyl-pyrazolo[1,5-a]pyrimidin-7-ol] | 100 to 1000 | < 10
CC(C)c1nc2ccnn2c(O)c1Cc1ccc(F)c(C(F)(F)F)c1 [Example 40, 6-{[4-Fluoro-3-(trifluoromethyl)phenyl]-methyl}-5-(propan-2-yl)pyrazolo[1,5-a]-pyrimidin-7-ol] | 100 to 1000 | < 10
CCOC(=O)c1nc2ccnn2c(O)c1Cc1ccc(Cl)c(Cl)c1 [Example 72, Ethyl 6-[(3,4-dichlorophenyl)methyl]-7-hydroxypyrazolo[1,5-a]pyrimidine-5-carboxylate] | 10 to 100 | < 10
Cc1nc2c(C(=O)N3CCOCC3)cnn2c(O)c1Cc1ccc(C(F)(F)F)cc1 [Example 114] | – | 100 to 1000
CNC(=O)c1cnn2c(O)c(Cc3ccc(Cl)cc3)c(C)nc12 [Example 99, 6-[(4-Chlorophenyl)methyl]-7-hydroxy-N,5-dimethylpyrazolo[1,5-a]pyrimidine-3-carboxamide] | – | 100 to 1000
COCc1nc2ccnn2c(O)c1Cc1ccc(Cl)cc1 [Example 51, 6-[(4-Chlorophenyl)methyl]-5-(methoxy-methyl)pyrazolo[1,5-a]pyrimidin-7-ol] | – | 10 to 100
Oc1c(Cc2cc(Cl)cc(Cl)c2)c(C2CC2)nc2ccnn12 [Example 34, 5-Cyclopropyl-6-[(3,5-dichlorophenyl)-methyl]pyrazolo[1,5-a]pyrimidin-7-ol] | – | < 10
Cc1nc2c(C(=O)N(C)CCC#N)cnn2c(O)c1Cc1ccc(Cl)cc1 [Example 109, 6-[(4-Chlorophenyl)methyl]-N-(2-cyanoethyl)-7-hydroxy-N,5-dimethylpyrazolo[1,5-a] pyrimidine-3-carboxamide] | – | 100 to 1000
Cc1nc2ccnn2c(O)c1Cc1ccc(Cl)c(Br)c1 [Example 9, 6-[(3-Bromo-4-chlorophenyl)methyl]-5-methylpyrazolo[1,5-a]pyrimidin-7-ol] | – | 10 to 100
Oc1c(Cc2ccc(Cl)c(Cl)c2)c(C2CCCO2)nc2ccnn12 (centres unmarked) [Example 56, 6-[(3,4-Dichlorophenyl)methyl]-5-(oxolan-2-yl)pyrazolo[1,5-a]pyrimidin-7-ol] | – | < 10
Oc1c(Cc2cccc(Cl)c2)c(C2CCC2)nc2ccnn12 [Example 43, 6-[(3-Chlorophenyl)methyl]-5-cyclobutyl-pyrazolo[1,5-a]pyrimidin-7-ol] | – | < 10
CC(C)c1nc2ccnn2c(O)c1Oc1ccc(Cl)c(F)c1 [Example 67, 6-(4-Chloro-3-fluorophenoxy)-5-(propan-2-yl)pyrazolo[1,5-a]pyrimidin-7-ol] | – | < 10
Oc1c(Cc2ccc(Cl)c(Cl)c2)c(C(F)(F)F)nc2ccnn12 [Example 55, 6-[(3,4-Dichlorophenyl)methyl]-5-(trifluoromethyl)pyrazolo[1,5-a]pyrimidin-7-ol] | – | < 10
CCc1nc2ccnn2c(O)c1Cc1ccc(Cl)c(Cl)c1 [Example 15, 6-[(3,4-Dichlorophenyl)methyl]-5-ethylpyrazolo[1,5-a]pyrimidin-7-ol] | – | < 10
Oc1c(Cc2ccc(Cl)c(F)c2)c(C2CC2)nc2ccnn12 [Example 27, 6-[(4-Chloro-3-fluorophenyl)methyl]-5-cyclopropylpyrazolo[1,5-a]pyrimidin-7-ol] | – | < 10
Cc1nc2ccnn2c(O)c1Oc1ccc(Cl)c(Cl)c1 [Example 60, 6-(3,4-Dichlorophenoxy)-5-methyl-pyrazolo[1,5-a]pyrimidin-7-ol] | – | 10 to 100
C=CCNC(=O)c1cnn2c(O)c(Cc3ccc(Cl)cc3)c(C)nc12 [Example 106, 6-[(4-Chlorophenyl)methyl]-7-hydroxy-5-methyl-N-(prop-2-en-1-yl)pyrazolo[1,5-a]-pyrimidine-3-carboxamide] | – | 100 to 1000
Oc1c(Cc2ccc(OC(F)(F)F)cc2)c(C2CC2)nc2ccnn12 [Example 19, 5-Cyclopropyl-6-{[4-(trifluoromethoxy)-phenyl]methyl}pyrazolo[1,5-a]pyrimidin-7-ol] | – | 10 to 100
Cc1nc2ccnn2c(O)c1Nc1cccc(F)c1 [Example 78, 6-[(3-Fluorophenyl)amino]-5-methylpyrazolo[1,5-a]pyrimidin-7-ol] | – | 100 to 1000
Cc1nc2c(Br)cnn2c(O)c1Cc1ccc(Cl)cc1 [Example 58, 3-Bromo-6-[(4-chlorophenyl)methyl]-5-methylpyrazolo[1,5-a]pyrimidin-7-ol] | – | 10 to 100
Oc1c(Cc2ccc(F)c(F)c2)c(C2CC2)nc2ccnn12 [Example 24, 5-Cyclopropyl-6-[(3,4-difluorophenyl)-methyl]pyrazolo[1,5-a]pyrimidin-7-ol] | – | < 10
CC(=O)c1nc2ccnn2c(O)c1Cc1cccc(F)c1 [Example 94, 1-{6-[(3-Fluorophenyl)methyl]-7-hydroxypyrazolo[1,5-a]pyrimidin-5-yl}ethan-1-one] | – | 10 to 100

The remaining lines, values ahead:

Ki (human CCR2 [1]) [nM] | Ki (human CCR2 [2]) [nM] | SMILES
10 to 100 | < 10 | CCc1nc2ccnn2c(O)c1Oc1ccc(Cl)c(Cl)c1 [Example 64, 6-(3,4-Dichlorophenoxy)-5-ethyl-pyrazolo[1,5-a]pyrimidin-7-ol]
100 to 1000 | < 10 | CCCc1nc2ccnn2c(O)c1Cc1ccc(C(F)(F)F)c(F)c1 [Example 16, 6-{[3-Fluoro-4-(trifluoromethyl)phenyl]-methyl}-5-propylpyrazolo[1,5-a]-pyrimidin-7-ol]
100 to 1000 | 10 to 100 | Cc1nc2ccnn2c(O)c1Cc1ccc(Cl)cc1 [Example 1, 6-[(4-Chlorophenyl)methyl]-5-methylpyrazolo[1,5-a]pyrimidin-7-ol]
10 to 100 | < 10 | Oc1c(Cc2cccc(Cl)c2)c(C2CC2)nc2ccnn12 [Example 21, 6-[(3-Chlorophenyl)methyl]-5-cyclo-propylpyrazolo[1,5-a]pyrimidin-7-ol]
– | 10 to 100 | CCOC(=O)c1nc2ccnn2c(O)c1Oc1ccc(Cl)c(Cl)c1 [Example 76, Ethyl 6-(3,4-dichlorophenoxy)-7-hydroxy-pyrazolo[1,5-a]pyrimidine-5-carboxylate]
– | 100 to 1000 | Cc1nc2ccnn2c(O)c1Cc1ccc(F)c(C#N)c1 [Example 8, 2-Fluoro-5-({7-hydroxy-5-methylpyrazolo-(1,5-a]pyrimidin-6-yl}methyl)benzonitrile]
– | < 10 | Oc1c(Cc2cc(F)cc(Cl)c2)c(C2CC2)nc2ccnn12 [Example 29, 6-[(3-Chloro-5-fluorophenyl)methyl]-5-cyclopropylpyrazolo[1,5-a]pyrimidin-7-ol]
– | 100 to 1000 | Cc1noc(-c2nc3ccnn3c(O)c2Cc2cccc(F)c2)n1 [Example 92, 6-[(3-Fluorophenyl)methyl]-5-(3-methyl-1,2,4-oxadiazol-5-yl)pyrazolo[1,5-a]pyrimidin-7-ol]
– | 10 to 100 | COC(=O)c1nc2ccnn2c(O)c1Cc1cccc(F)c1 [Example 69, Methyl 6-[(3-fluorophenyl)methyl]-7-hydroxypyrazolo[1,5-a]pyrimidine-5-carboxylate]
– | 10 to 100 | CCc1nc2ccnn2c(O)c1Oc1ccc(F)c(Cl)c1 [Example 63, 6-(3-Chloro-4-fluorophenoxy)-5-ethyl-pyrazolo[1,5-a]pyrimidin-7-ol]
– | 100 to 1000 | Cc1nc2ccnn2c(O)c1Cc1ccc(C(F)(F)F)cc1 [Example 2, 5-Methyl-6-{[4-(trifluoromethyl)phenyl]methyl}pyrazolo[1,5-a]pyrimidin-7-ol]
